# Columns and labels:
# Format in all cases: functional
# Cavia porcellus [1] = species: Cavia porcellus; assay: Maximum relaxation achieved compared to maximum relaxation to aminophylline (mM) in guinea pig trachaelis
# Cavia porcellus [2] = species: Cavia porcellus; assay: Inhibition of spontaneous tone in guinea pig trachaelis
# Rattus norvegicus [3] = species: Rattus norvegicus; assay: Maximum reduction of 30 mM KCl- induced contraction in rat aorta
# Rattus norvegicus [4] = species: Rattus norvegicus; assay: […] activity in rat aorta precontracted with 30 mM KCl
SMILES,EC50 (Cavia porcellus [2]),EC50 (Rattus norvegicus [4]),Intrinsic activity (Cavia porcellus [1]),Intrinsic activity (Rattus norvegicus [3])
CN(C)/C(=N\C#N)C1=CC(C)(C)Oc2ccc(S(=O)(=O)c3ccccc3)cc21,3630 nM,3310 nM,91.1%,73.8%
CN(C)/C(=N\C#N)C1=CC(C)(C)Oc2ccc([N+](=O)[O-])cc21,51.3 nM,> 31600 nM,90.6%,
CN(C)/C(=C\[N+](=O)[O-])C1=CC(C)(C)Oc2ccc([N+](=O)[O-])cc21,1120 nM,6460 nM,84.8%,83.1%
COc1ccc2c(c1)C(/C(=N/C#N)N(C)C)=CC(C)(C)O2,> 31600 nM,> 31600 nM,,
CC(N/C(=N\C#N)Nc1ccncc1)C(C)(C)C (centres undefined) [PINACIDIL ANHYDROUS],1580 nM,,97.3%,91.9%
CN(C)/C(=N\C(N)=O)C1=CC(C)(C)Oc2ccc([N+](=O)[O-])cc21,> 31600 nM,> 31600 nM,,
CN(C)C(=S)C1=CC(C)(C)Oc2ccc([N+](=O)[O-])cc21,490 nM,955 nM,77.4%,71.5%
CN(C)/C(=N\C#N)C1=CC(C)(C)Oc2ccc(C#N)cc21,2140 nM,5010 nM,85.6%,73.7%
CN(C)/C(=N\C#N)C1=CC(C)(C)Oc2ccccc21,> 31600 nM,> 31600 nM,,
CN(C)/C(=N\C#N)C1=CC(C)(C)Oc2ccc(Br)cc21,> 31600 nM,> 31600 nM,,
CN(C)/C(=N\C#N)C1=CC(C)(C)Oc2ccc(C(F)(F)F)cc21,178 nM,12600 nM,74.1%,75.2%

# Continued, in another order:
EC50 (Cavia porcellus [2]),EC50 (Rattus norvegicus [4]),SMILES,Intrinsic activity (Cavia porcellus [1]),Intrinsic activity (Rattus norvegicus [3])
851 nM,,CC1(C)Oc2ccc(C#N)cc2[C@@H](N2CCCC2=O)[C@H]1O [CROMAKALIM],85.1%,74.7%
398 nM,129 nM,CN(C)C(=O)C1=CC(C)(C)Oc2ccc([N+](=O)[O-])cc21,78.3%,79.9%
407 nM,> 10000 nM,CN(C)/C(=N/C#N)C1=CC(C)(C)Oc2ccc(OC(F)(F)F)cc21,56.1%,
> 31600 nM,> 31600 nM,CN(C)/C(=N\C#N)C1=CC(C)(C)Oc2ccc(S(C)(=O)=O)cc21,,
> 31600 nM,> 31600 nM,CN(C)/C(=N\C#N)C1=CC(C)(C)Oc2ccc(Cl)cc21,,
> 31600 nM,> 31600 nM,CN(C)/C(=N\S(N)(=O)=O)C1=CC(C)(C)Oc2ccc([N+](=O)[O-])cc21,,
33.1 nM,10.7 nM,CNC(=O)C1=CC(C)(C)Oc2ccc([N+](=O)[O-])cc21,89.6%,61%

# Source: ChEMBL document CHEMBL1127953, “Substituent effects of benzopyran-4-(N-cyano)-carboxamidine potassium channel openers for selectivity to guinea pig trachealis” (Bioorg Med Chem Lett, 1994)
